From the NIST ThermoML archive (doi:10.1021/je025534p)
± gives the expanded uncertainty stated by the source.

Details: Liquid, Ebulliometric method (Recirculating still)

vapor or sublimation pressure (298 K) | vapor or sublimation pressure (303 K) | vapor or sublimation pressure (308 K) | vapor or sublimation pressure (313 K) | vapor or sublimation pressure (318 K) | vapor or sublimation pressure (323 K) | vapor or sublimation pressure (328 K) | vapor or sublimation pressure (333 K) | vapor or sublimation pressure (338 K) | vapor or sublimation pressure (343 K) | vapor or sublimation pressure (348 K) | vapor or sublimation pressure (353 K) | vapor or sublimation pressure (358 K) | vapor or sublimation pressure (363 K) | vapor or sublimation pressure (366 K) | vapor or sublimation pressure (356 K) | vapor or sublimation pressure (373 K) | Compound
8.89 ± 4 kPa | 11.17 ± 4 kPa | 13.9 ± 4 kPa | 17.17 ± 4 kPa | 21.04 ± 4 kPa | 25.62 ± 4 kPa | 30.97 ± 4 kPa | 37.21 ± 4 kPa | 44.43 ± 4 kPa | 52.75 ± 4 kPa | 62.29 ± 4 kPa | 73.16 ± 4 kPa | 85.51 ± 4 kPa | 99.46 ± 4 kPa | 99 ± 9.9 kPa | – | – | CC1COC(C)O1 (centres undefined) [2,4-dimethyl-1,3-dioxolane]
11.29 ± 4 kPa | 14.2 ± 4 kPa | 17.72 ± 4 kPa | 21.98 ± 4 kPa | 27.07 ± 4 kPa | 33.15 ± 4 kPa | 40.35 ± 4 kPa | 48.83 ± 4 kPa | 58.78 ± 4 kPa | 70.39 ± 4 kPa | 83.87 ± 4 kPa | 99.46 ± 4 kPa | – | – | – | 99 ± 9.9 kPa | – | CC1OCCO1 [2-methyl-1,3-dioxolane]
– | – | – | – | – | – | – | – | – | – | – | – | – | – | – | – | 99 ± 9.9 kPa | O [water]
